One assay concerns dividing A375 cells. In words: Peptide efficacy in culture (MTS), dividing cells. In kind it is cell-based, human. The note with it: for IC50: peptide replenished daily for two days, MTS, best fit polynomial, read-out: IC50^div, concentration to kill 50% of dividing cells. As for the experimental part: (§1) Cell lines were treated with chemotherapy, doxorubicin (Sigma, Cat. No. 2252) to induce senescence (200 nM for HCT116, 100 nM for B16-F10 and MCF7, 50 nM for SW480 and DLD-1, 40 nM for A375-Luc/iRFP and MCF10a). MCF7 cells were treated with CDK4/6 inhibitor, palbociclib (Selleck Chemicals: S1116) to induce senescence (5 µM). A375 cells were treated with Braf inhibitor, Dabrafenib (Selleck Chemicals: S2807), to induce senescence (10 µM). Peptide efficacy experiments were performed by seeding 10,000 – 20,000 cells in a 96-well plate. The cells were given doxorubicin twice to make the cells senescent. After removal of doxorubicin, the plate was treated with varying concentrations of peptide. The peptide was replenished daily for two days. Cellular proliferation was quantified using the Promega CellTiter 96™ AQueous One Solution Cell Proliferation Assay (MTS) after 2 hours according to the manufacturer's protocol (Promega, G3581). To control for the charge of ES2, ProteoJuice (Millipore Sigma, 71281) was used to deliver ES2 using the manufacturers protocol, except 50 µL of 2 mM ES2 was mixed with 25 µL of ProteoJuice. Varying concentrations of the mixture were administered to A375 cells along with a control of only ProteoJuice.

Another assay relates to senescent A375 cells. The assay is described as follows: Peptide efficacy in culture (MTS), senescent cells. In kind it is cell-based, human. Conditions: for IC50: doxorubicin (40 nM)-induced senescent A375 cells, peptide replenished daily for two days, MTS, best fit polynomial, read-out: IC50^sen, concentration to kill 50% of senescent cells; for senolytic activity (in words): senescent vs dividing A375 cells. As for the experimental part: as §1

The test system of assay [1] is senescent A375 human melanoma cells. In words: Orthotopic xenograft of senescent luciferase A375 cells in mouse ears. In kind it is in vivo. The note with it: NSG mouse ears, local injection 50 µL of 5 mg/mL once daily for two days, imaged 24 hours after second treatment; ANOVA p<0.01. The source says: (§2) Mice were aged between 3-8 months and 20-30 g in weight and were housed in specific pathogen free cages. Animals were randomly distributed among treatment groups by assigning mice within the same cage to different treatment regimens. To minimise confounders, mouse treatment order was randomised within each cage. Male and female mice were distributed between all treatment groups since the chemicals used were directly injected and are not metabolized. Researchers were not blinded to the group allocation, but all attempts were made to analyse the data without knowing treatment conditions. NOD.Cg-Prkdcscid Il2rgtm1Wjl/SzJ (NSG) were purchased from The Jackson Laboratory (IMSR Cat# JAX:005557, RRID:IMSR_JAX:005557). NOD.Cg-KitW-41J Tyr + Prkdcscid Il2rgtm1Wjl/ThomJ (NBSGW) were purchased from The Jackson Laboratory (IMSR Cat# JAX:026622, RRID:IMSR_JAX:026622). Immunocompromised mice used for these experiments were all in the NSG background; however, some mice were F1 generation of NSG x NBSGW, thus the brown coat colour as NBSGW mice have tyrosinase. Xenografts containing senescent cells were established by injecting A375-Luc/iRFP human melanoma cells which contained a luciferase expressing gene into immunocompromised NSG ears. Senescence was induced in the cells via doxorubicin treatment (40 nM) then resuspended in DMEM prior to injection. Each ear was then injected with 50 µL containing approximately 1,000,000 cells. The ears were treated once daily for two days with 50 µL of either 5 mg/mL peptide, or saline. To control for confounders, each mouse contained one ear treated with saline (control). For imaging, mice were injected with 3 mg luciferin intravenously and imaged before and after treatment. Transgenic mice (BrafCA, PtenloxP, Tyr::CreERT2) were purchased from The Jackson Laboratory (IMSR Cat# JAX:013590, RRID:IMSR_JAX:013590). These mice were maintained on a C57Bl6 background and all experimental mice contained Tyr::CreER with either Braf^CA/+, Pten^fx/+; Braf^CA/CA, Pten^fx/+, or Braf^CA/+, Pten^fx/fx. […] Hypopigmented melanomas sporadically formed over the next 3-5 months, typically on the back of the mouse. These melanomas were then directly injected with 100 µL of either 20 mg/mL ES2+10%DMSO, saline+10%DMSO, saline+10%Dabrafenib, or 20 mg/mL ES2+10%Dabrafenib. The researchers were not blinded to the experiment, but each mouse contained an internal control and all imaging was done with the same exposure times based upon control tissue. For survival analyses, either 750,000 or 25,000 A375-Luc/iRFP cells were injected intradermally into NSG mice. Different combinations of drugs were locally injected to the region once daily for two days with 50 µL of either 5 mg/mL ES2, 10%Dabrafenib, or 5mg/mL ES2+10%Dabrafenib. Dabrafenib was made at 100 mg/mL in DMSO. Mice were then monitored daily and allowed to age until a humane endpoint was reached according to our IACUC protocol, which in this case was tumours of 2 cm in size. Aged C57Bl6 male mice were purchased from the Jackson Laboratory (IMSR Car# JAX:000664, RRID:IMSR_JAX:000664) at 72 weeks of age and were started on the experiment at 82 weeks. Mice were treated with 3 mg of ES2 via tail vein injection weekly for three weeks and weighed weekly. Blood was drawn prior to beginning experiments and at the endpoint. To generate plasma, blood was centrifuged at 1,500g for 10 minutes, then 2,500g for 10 minutes, then frozen for later analyses. […]

Assay [2] has as its system Braf/Pten sporadic melanomas. In words: TUNEL staining of melanomas in transgenic mice. In kind it is in vivo, mouse. Conditions: intratumoural injection daily over two days, single agents vs saline.
Description: Fixed frozen sections of melanomas were stained with the Click-IT Plus TUNEL assay (ThermoFisher C10618) according to the manufacturer's protocol. Stained sections were imaged with a Zeiss A2 upright microscope at either 20x or 10x. At least one of each treatment group were stained and imaged at the same time. All sections from each staining group were set to the same exposure time for TUNEL and DAPI. Any normalization of background levels was performed in Adobe Photoshop and set to the same scale for the entire image and for all other images.
In assay [3] the test system is Braf/Pten sporadic melanomas. The assay is described as follows: SA-β-gal staining of melanomas in transgenic mice. In kind it is in vivo, mouse. The protocol: Senescent and dividing cells or tissue sections were fixed with 4% formaldehyde. The cells were washed with PBS twice before staining with X-gal solution [1 mg/mL 5-bromo-4-chloro-3inolyl-β-D-galactoside (Boehringer Manneheim #745-740) in N,N-dimethylformamide, 5 mM potassium ferricyanide crystalline (#P-8131), 5 mM potassium […] (#P-3289), 2 mM magnesium chloride, and 1x PBS, pH 6.0. Cells or tissue sections were incubated at 37°C for 24 hours. After staining, cells were washed with PBS before being counted and imaged on the Leica Dmi8 microscope.
Mice were aged between 3-8 months and 20-30 g in weight and were housed in specific pathogen free cages. Animals were randomly distributed among treatment groups by assigning mice within the same cage to different treatment regimens. To minimise confounders, mouse treatment order was randomised within each cage. Male and female mice were distributed between all treatment groups since the chemicals used were directly injected and are not metabolized. Researchers were not blinded to the group allocation, but all attempts were made to analyse the data without knowing treatment conditions. […] Mice were then monitored daily and allowed to age until a humane endpoint was reached according to our IACUC protocol, which in this case was tumours of 2 cm in size. […]

Assay [4] relates to dividing A375 human melanoma cells. In words: Survival study, orthotopic A375 xenograft. The note with it: local injection once daily for two days. In kind it is in vivo, mouse.
Description: as §2, with “Different combinations of drugs were locally injected to the region once daily for two days with 50 µL of either 5 mg/mL ES2, 10%Dabrafenib, or 5mg/mL ES2+10%Dabrafenib. Dabrafenib was made at 100 mg/mL in DMSO.” left out, “size.” for “size. Aged C57Bl6 male mice were purchased from the Jackson Laboratory (IMSR Car# JAX:000664, RRID:IMSR_JAX:000664) at 72 weeks of age and were started on the experiment at 82 weeks. Mice were treated with 3 mg of ES2 via tail vein injection weekly for three weeks and weighed weekly. Blood was drawn prior to beginning experiments and at the endpoint. To generate plasma, blood was centrifuged at 1,500g for 10 minutes, then 2,500g for 10 minutes, then frozen for later analyses.”

Where no end group is shown, it is not given here. [ ]: non-standard residue; d: D form.

For YGRKKRRQRRRYGRKKRRQRRRYGRKKRRQRRR [ES1], the IC50 with dividing A375 cells was around 19 µM. Besides, in the assay on senescent A375 cells, the IC50 is around 4 µM and the “senolytic activity (in words)” value was “highest senolytic activity”. In addition, the “luciferase signal compared to E1 and saline” value in assay [1] was “statistically significantly reduced luciferase signal”.

For `CC(C)(C)c1nc(-c2cccc(NS(=O)(=O)c3c(F)cccc3F)c2F)c(-c2ccnc(N)n2)s1` [Dabrafenib], the “effect on apoptosis (TUNEL), in words” value is given as “no effect on apoptosis” in assay [2] and “no difference” in assay [2] (listed as Dab). Besides, in assay [3] (Dabrafenib n=8, saline n=5, p<0.001), the “increase of fraction of SA-β-gal+ cells within the melanoma over saline” value was determined as 11 fold. In addition, the “senescence of the melanoma compared to vehicle, in words” value in assay [3] (intratumoural injection daily over two days) is “strongly induced senescence”. The “effect on survival time, in words” value in assay [4] (25,000 A375 cells) is “no effect on survival time”; in assay [4] (750,000 A375 cells), “did not alter survival times”.

For “PRKGGSRRRAWGRRRYRRRLRRRLRRAPRKRLTLA [ES2r2]”, the IC50 in the assay with dividing A375 cells was above 20 µM; in the assay on senescent A375 cells, around 9 µM. In addition, the “senolytic activity (in words)” value with senescent A375 cells is “slightly lower senolytic activity”. For the same compound, the “luciferase signal compared to E1 and saline” value in assay [1] was “statistically significantly reduced luciferase signal”.

For “PRKGGRRRRAWGRRRRRRRLRRRLRRAPRKRLTLA [ES2r1]”, the IC50 in the assay on dividing A375 cells is around 13 µM; with senescent A375 cells, around 6 µM. Also, in the assay with senescent A375 cells, the “senolytic activity (in words)” value is on record as “highest senolytic activity”. In assay [1], the “luciferase signal compared to E1 and saline” value was “statistically significantly reduced luciferase signal”.

“H-GRKKRRQRRRPPPRKGGSRRRAWGNQRYARLIRQAIESAPEKRLTLA-OH [E1]”: the “senolytic activity (in words)” value with senescent A375 cells was “negligible senolytic activity”.

For “[dL][dT][dL][dR][dK][dE][dP][dA][dS][dE][dI][dA][dQ][dS][dI][dL][dE][dA][dY][dS][dQ][dN]G[dW][dA][dN][dR][dR][dS]GG[dK][dR][dP][dP][dP][dR][dR][dR][dQ][dR][dR][dK][dK][dR]G [FOXO4-DRI, reference compound]”, the “lytic activity in dividing cells (in words)” value in the assay with dividing A375 cells is “minimal lytic activity in dividing cells”. Besides, in assay [1], the “luciferase signal compared to E1 and saline” value is listed as “statistically significantly reduced luciferase signal”.

The values above are taken from PMC8546421, “Molecular modelling of the FOXO4-TP53 interaction to design senolytic peptides for the elimination of senescent cancer cells” (EBioMedicine, 2021).
